Square brackets hold non-standard residues; d marks the D form. Peptide text beside a SMILES is read from it.
System: male Beagle dog
Assay: In vivo GH secretion after escalating SC injections in a male Beagle dog
Settings: AUC not measured
Description: The ability of human GHRH analogue #5 (human [D-Ala^2, D-Tyr^10, D-Ala^15, Lys^22] GHRH (1-29)NH2 analogue) to stimulate GH secretion was studied in adult female rats (26-34 weeks at onset of treatment) and in a male Beagle dog.
Human GHRH analogue #5, in 0.9% sodium chloride for injection USP, was administered on days 3, 5 and 8 at dose levels of 0.01, 0.1, and 1 mg/kg body weight, respectively by subcutaneous (SC) injection to an approximately 8-month old male dog as shown in Table 3. On Day 1, the dog received the control (vehicle) article and on Day 11, the animal received the positive control, hGHRH (1-44)NH2 at a dose level of 0.01 mg/kg. Prior to administration, all dosing formulations were filtered using a 0.22 μm filter to ensure sterility. The actual amount of GHRH analogue #5 administered was calculated and adjusted based on the animal's most recent body weight. Dosing started at approximately the same time each day, commencing at 9:00 am±30 minutes. […]
Plasma GH was determined by Linco Diagnostic Services using their own kit. Linco's Porcine/Canine Growth Hormone radioimmunoassay kit (RIA) (PGH-46HK) has been developed to quantitate Growth Hormone in plasma, serum, and tissue culture media. […]

## CC[C@H](C)[C@H](NC(=O)[C@H](C)NC(=O)[C@H](CC(=O)O)NC(=O)[C@@H](C)NC(=O)[C@@H](N)Cc1ccc(O)cc1)C(=O)N[C@@H](Cc1ccccc1)C(=O)N[C@H](C(=O)N[C@@H](CC(N)=O)C(=O)N[C@@H](CO)C(=O)N[C@H](Cc1ccc(O)cc1)C(=O)N[C@@H](CCCNC(=N)N)C(=O)N[C@@H](CCCCN)C(=O)N[C@H](C(=O)N[C@@H](CC(C)C)C(=O)N[C@H](C)C(=O)N[C@@H](CCC(N)=O)C(=O)N[C@@H](CC(C)C)C(=O)N[C@@H](CO)C(=O)N[C@@H](C)C(=O)N[C@@H](CCCNC(=N)N)C(=O)N[C@@H](CCCCN)C(=O)N[C@@H](CCCCN)C(=O)N[C@@H](CC(C)C)C(=O)N[C@@H](CCC(N)=O)C(=O)N[C@@H](CC(=O)O)C(=O)N[C@H](C(=O)N[C@@H](CCSC)C(=O)N[C@@H](CO)C(=O)N[C@@H](CCCNC(=N)N)C(N)=O)[C@@H](C)CC)C(C)C)[C@@H](C)O [GHRH analogue #5, [D-Ala^2, D-Tyr^10, D-Ala^15, Lys^22] hGHRH(1-29)-NH2] (H-Y[dA]DAIFTNS[dY]RKVL[dA]QLSARKKLQDIMSR-NH2)
  GH response compared with response to natural hGHRH(1-44)NH2: significantly larger

Source: patent US20090023646A1, “GHRH analogues” (Centre Hospitalier de L'Universite de Montreal (CHUM), priority 2002, published 2009)
